≈ marks a conversion by molar mass, not a printed value.
Experiments:
Assay type in all cases: cell-based
[1] = tested on: Staphylococcus aureus (ATCC29213); assay: Microtitre plate assay, IC90 determination (STA 29213); details: 90% inhibitory concentration for bacterial growth, 37° C., resazurin fluorescence; for IC90 STA 29213: 24 hours; for IC90: Staphylococcus aureus, ATCC29213, 24 h
Protocol: (§1) The bacteria used in this study were grown overnight in flasks containing 100 ml Mueller-Hinton Broth (Becton Dickinson—cat. no. 275730) in sterile de-ionized water, with shaking, at 37° C. Stocks (0.5 ml/tube) were stored at −70° C. until use. Bacteria titrations were performed in microtiter plates and colony forming units (CFUs) were determined. In general, an inoculum level of approximately 100 CFUs was used for susceptibility testing.
(§2) Flat-bottom, sterile 96-well plastic microtiter plates were filled with 180 μl of sterile deionized water, supplemented with 0.25% BSA. Subsequently, stock solutions (7.8× final test concentration) of compounds were added in 45 μl volumes in column 2 Serial five-fold dilutions (45 μl in 180 μl) were made directly in the microtiter plates from column 2 to reach column 11. Untreated control samples with (column 1) and without (column 12) inoculum were included in each microtiter plate. Depending on the bacteria type, approximately 10 to 60 CFU per well of bacteria inoculum (100 TCID50), in a volume of 100 μl in 2.8× Mueller-Hinton broth medium, was added to the rows A to H, except column 12. The same volume of broth medium without inoculum was added to column 12 in row A to H. The cultures were incubated at 37° C. for 24 hours under a normal atmosphere (incubator with open air valve and continuous ventilation). At the end of incubation, one day after inoculation, the bacterial growth was quantitated fluorometrically. Therefore resazurin (0.6 mg/ml) was added in a volume of 20 μl to all wells 3 hours after inoculation, and the plates were re-incubated overnight. A change in colour from blue to pink indicated the growth of bacteria. The fluorescence was read in a computer-controlled fluorometer (Cytofluor Biosearch) at an excitation wavelength of 530 nm and an emission wavelength of 590 nm. The % growth inhibition achieved by the compounds was calculated according to standard methods. The IC90 (expressed in μg/ml) was defined as the 90% inhibitory concentration for bacterial growth.

[2] = tested on: Streptococcus pneumoniae (ATCC6305); assay: Microtitre plate assay, IC90 determination (SPN 6305); details: 90% inhibitory concentration for bacterial growth, 37° C., resazurin fluorescence; for IC90 SPN 6305: 24 hours; for IC90: Streptococcus pneumoniae, ATCC6305, 24 h
Protocol: as §1, §2

[3] = tested on: Pseudomonas aeruginosa (ATCC27853); assay: Microtitre plate assay, IC90 determination (PAE 27853); details: 90% inhibitory concentration for bacterial growth, 37° C., resazurin fluorescence; for IC90 PAE 27853: 24 hours; for IC90: Pseudomonas aeruginosa, ATCC27853, 24 h
Protocol: as §1, §2

[4] = tested on: Enterococcus faecalis (ATCC29212); assay: Microtitre plate assay, IC90 determination (EFA 29212); details: 90% inhibitory concentration for bacterial growth, 37° C., resazurin fluorescence; for IC90 EFA 29212: 24 hours; for IC90: Enterococcus faecalis, ATCC29212, 24 h
Protocol: as §1, §2

[5] = tested on: Streptococcus pyogens (ATCC8668); assay: Microtitre plate assay, IC90 determination (SPY 8668); details: 90% inhibitory concentration for bacterial growth, 37° C., resazurin fluorescence; for IC90 SPY 8668: 24 hours; for IC90: Streptococcus, ATCC8668, 24 h
Protocol: as §1, §2

Structure (SMILES) | IC90 STA 29213 [1] [mg/L] | IC90 SPN 6305 [2] [mg/L] | IC90 EFA 29212 [4] [mg/L] | IC90 [3] [mg/L] | IC90 [4] [mg/L] | IC90 [5] [mg/L] | IC90 [1] [mg/L] | IC90 [2] [mg/L] | IC90 PAE 27853 [3] [mg/L] | IC90 SPY 8668 [5] [mg/L]
COc1nc2ccc(Br)cc2cc1C(c1ccccc1)C(O)(CCc1ccccc1)CCN(C)C (centres unmarked) [Compound 18] | 8.5 (≈ 15.9 µM) | 2.1 (≈ 3.94 µM) | 10.6 (≈ 19.9 µM) |  |  |  |  |  | 10.6 (≈ 19.9 µM) | 8.5 (≈ 15.9 µM)
CSc1nc2ccc(Br)cc2cc1C(c1ccccc1)C(O)(CCc1ccccc1)CCN(C)C (centres unmarked) [Compound 11] | 11.0 (≈ 20 µM) | 3.9 (≈ 7.1 µM) |  | 43.7 (≈ 79.5 µM) | 43.7 (≈ 79.5 µM) | 8.7 (≈ 15.8 µM) |  |  |  | 
COc1ccc2nc(OC)c(C(c3ccccc3)C(O)(CCc3ccccc3)CCN(C)C)cc2c1 (centres unmarked) [Compound 3] |  | 3.4 (≈ 7.02 µM) |  | 9.7 (≈ 20 µM) | 9.7 (≈ 20 µM) | 9.7 (≈ 20 µM) | 12.2 (≈ 25.2 µM) |  |  | 
COc1nc2ccc(-c3cccs3)cc2cc1C(c1ccccc1)C(O)(CCc1ccccc1)CCN(C)C (racemic) [Compound 63] | 10.7 (≈ 19.9 µM) | 2.1 (≈ 3.91 µM) | 19.0 (≈ 35.4 µM) |  |  |  |  |  | 8.5 (≈ 15.8 µM) | 21.4 (≈ 39.9 µM)
COc1nc2ccc(Br)cc2cc1C(c1ccccc1)C(O)(CCc1ccc(F)cc1)CCN1CCCCC1 (centres unmarked) [Compound 35] |  | 3.7 (≈ 6.25 µM) |  | 59.2 (≈ 100 µM) | 59.2 (≈ 100 µM) | 9.4 (≈ 15.9 µM) | 59.2 (≈ 100 µM) |  |  | 
COc1nc2ccc(Br)cc2cc1C(c1ccccc1)C(O)(CCc1ccc(F)cc1)CCN(C)C (centres unmarked) [Compound 28] | 1.7 (≈ 3.08 µM) | 0.9 (≈ 1.63 µM) | 3.9 (≈ 7.07 µM) |  |  |  |  |  | 3.9 (≈ 7.07 µM) | 3.9 (≈ 7.07 µM)
COc1nc2ccc(-c3cccnc3)cc2cc1C(c1ccccc1)C(O)(CCc1ccccc1)CCN(C)C (centres unmarked) [Compound 36] |  |  |  | 42.2 (≈ 79.4 µM) | 42.2 (≈ 79.4 µM) | 16.8 (≈ 31.6 µM) | 1.7 (≈ 3.2 µM) | 1.7 (≈ 3.2 µM) |  | 
COc1nc2ccc(Br)cc2cc1C(c1ccccc1)C(O)(CCc1ccccc1)CCN(C)C (centres unmarked) [Compound 20] |  | 1.1 (≈ 2.06 µM) | 1.7 (≈ 3.19 µM) |  |  |  | 8.5 (≈ 15.9 µM) |  | 1.7 (≈ 3.19 µM) | 1.7 (≈ 3.19 µM)
COc1ccc(CCC(O)(CCN(C)C)C(c2ccc(Cl)cc2)c2cc3cc(Br)ccc3nc2OC)cc1 (centres unmarked) [Compound 22] |  | 0.4 (≈ 0.669 µM) | 9.5 (≈ 15.9 µM) | 1.9 (≈ 3.18 µM) |  | 1.9 (≈ 3.18 µM) | 1.9 (≈ 3.18 µM) |  |  | 
COc1nc2ccc(C)cc2cc1C(c1ccccc1)C(O)(CCc1ccccc1)CCN(C)C (centres unmarked) [Compound 2] | 7.4 (≈ 15.8 µM) | 1.9 (≈ 4.05 µM) | 37.2 (≈ 79.4 µM) |  |  |  |  |  | 37.2 (≈ 79.4 µM) | 37.2 (≈ 79.4 µM)
CSc1nc2ccc(Br)cc2cc1C(c1ccc(Cl)cc1)C(O)(CCc1ccccc1)CCN(C)C (centres unmarked) [Compound 31] | 58.4 (≈ 100 µM) | 0.4 (≈ 0.685 µM) |  | 9.3 (≈ 15.9 µM) | 58.4 (≈ 100 µM) | 1.9 (≈ 3.25 µM) |  |  |  | 

Second part, led by results:

IC90 STA 29213 [1] [mg/L] | IC90 SPN 6305 [2] [mg/L] | IC90 EFA 29212 [4] [mg/L] | IC90 [3] [mg/L] | IC90 [4] [mg/L] | IC90 [5] [mg/L] | IC90 [1] [mg/L] | IC90 [2] [mg/L] | Structure (SMILES) | IC90 PAE 27853 [3] [mg/L] | IC90 SPY 8668 [5] [mg/L]
9.2 (≈ 15.8 µM) | 2.3 (≈ 3.95 µM) |  | 9.2 (≈ 15.8 µM) | 11.6 (≈ 19.9 µM) | 5.2 (≈ 8.93 µM) |  |  | COc1nc2ccc(Br)cc2cc1C(c1ccc(Cl)cc1)C(O)(CCc1ccc(C)cc1)CCN(C)C (centres unmarked) [Compound 87] |  | 
 |  |  | 54.8 (≈ 100 µM) | 54.8 (≈ 100 µM) | 43.5 (≈ 79.4 µM) | 2.2 (≈ 4.02 µM) | 1.7 (≈ 3.1 µM) | COc1nc2ccc(Br)cc2cc1C(c1cccc(C)c1)C(O)(CCc1ccccc1)CCN(C)C (centres unmarked) [Compound 71] |  | 
9.3 (≈ 15.9 µM) | 1.9 (≈ 3.24 µM) | 8.3 (≈ 14.2 µM) |  |  |  |  |  | COc1nc2ccc(Br)cc2cc1C(c1cccc(Cl)c1)C(O)(CCc1ccc(F)cc1)CCN(C)C (centres unmarked) [Compound 80] | 1.9 (≈ 3.24 µM) | 3.3 (≈ 5.63 µM)
 |  |  | 46.2 (≈ 79.4 µM) | 58.2 (≈ 100 µM) | 46.2 (≈ 79.4 µM) | 4.6 (≈ 7.91 µM) | 2.1 (≈ 3.61 µM) | COc1ccc(C(c2cc3cc(Br)ccc3nc2OC)C(O)(CCc2ccc(F)cc2)CCN(C)C)cc1 (centres unmarked) [Compound 84] |  | 
 |  |  | 46.5 (≈ 79.4 µM) | 58.6 (≈ 100 µM) | 46.5 (≈ 79.4 µM) | 9.3 (≈ 15.9 µM) | 2.3 (≈ 3.93 µM) | COc1nc2ccc(Br)cc2cc1C(c1ccc(Cl)cc1)C(O)(CCc1ccc(F)cc1)CCN(C)C (centres unmarked) [Compound 79] |  | 
